Data as given in EPA's ToxValDB 9.5 (doi:10.2903/j.efsa.2016.4498).
In brackets after ≈: the same amount, converted by molar mass.

Assays:
Pimephales promelas = conditions: mortality
Oryctolagus sp. = conditions: chronic
Elodea callitrichoides = conditions: chronic/long-term; duration: 42 days
Tagia sp. = conditions: chronic/long-term; growth
Daphnia magna = conditions: chronic/long-term; duration: 21 days; mortality
Apis mellifera = conditions: acute, mortality
Hypoaspis aculeifer = conditions: chronic/long-term; mortality
Rattus norvegicus = conditions: acute; oral; mortality

Question: For CNC1=C(c2cccc(C(F)(F)F)c2)C(=O)C(c2ccccc2)O1 (configuration not stated) [Flurtamone], which LC50 (Pimephales promelas; acute, duration: 96 hours) is on record?
Answer: The LC50 was 6.64 µg/mL (≈ 19.9 µM).

Question: And the NOEC (Pimephales promelas; chronic/long-term, duration: 35 days)?
Answer: Its NOEC is 0.188 mg/L.

Question: What about the NOAEL (Oryctolagus sp.) of the same compound?
Answer: Its NOAEL is 20 mg/kg-day.

Question: What about the NOEC (Elodea callitrichoides) of the same compound?
Answer: The NOEC was 0.001 mg/L.

Question: What about the NOEC (Tagia sp.) of the same compound?
Answer: Its NOEC is 47.5 mg/kg.

Question: And the NOEC (Daphnia magna)?
Answer: Its NOEC is 0.071 mg/L.

Question: And the LD50 (Colinus virginianus; acute, oral, mortality)?
Answer: Its LD50 is greater than 2530 mg/kg.

Question: And the NOEC (Colinus virginianus; chronic)?
Answer: The NOEC was 7.3 mg/kg-day.

Question: What about the LD50 (Apis mellifera; dermal) of the same compound?
Answer: The LD50 was greater than 100 µg/piece.

Question: And the LD50 (Apis mellifera; oral, unspecified)?
Answer: The LD50 was greater than 105 µg/piece.

Question: What about the NOEC (Hypoaspis aculeifer) of the same compound?
Answer: The NOEC was 89 mg/kg.

Question: And the LD50 (Rattus norvegicus)?
Answer: Its LD50 is greater than 5000 mg/kg.
